Experimental findings from ChEMBL document CHEMBL3085752, “Novel isatin-based hydroxamic acids as histone deacetylase inhibitors and antitumor agents” (Eur J Med Chem, 2013) are described below.

Molecules are shown by their SMILES. Activity calls are given as the source filed them. No cut-off for these calls is given here.

The subject of test [1] is SW-620. The test can be described thus: Antiproliferative activity against human SW620 cells at 30 uM after 48 hrs by SRB assay. It is filed as functional, cell-based. A general note: The SRB assay estimates cell density from bound dye.
Test [2] deals with T1, Histone deacetylase (Homo sapiens) (UniProt Q13547+O15379+Q9UBN7+Q92769+Q9UQL6+Q8WUI4+Q9BY41+Q96DB2+P56524+Q9UKV0+Q969S8). The test can be described thus: Inhibition of HDAC in human SW620 cells assessed as acetylated histone-H3 level at 1 uM after 24 hrs by Western blotting analysis. It is filed as cell-based. As to conditions: SW-620. (In general: In western blotting, separated proteins are transferred to a membrane and probed.)

Test [3] concerns ASPC1. In words: Antiproliferative activity against human AsPC1 cells after 48 hrs by SRB assay. In kind it is functional, cell-based. As to conditions: ASPC1, 48 h.
The next test concerns NCI-H460. In words: Antiproliferative activity against human NCI-H460 cells after 48 hrs by SRB assay. In kind it is functional, cell-based. As to conditions: NCI-H460, 48 h.
The test system of test [4] is SW-620. The test can be described thus: Antiproliferative activity against human SW620 cells after 48 hrs by SRB assay. It is filed as functional, cell-based. As to conditions: SW-620, 48 h.
The next test relates to PC-3. In words: Antiproliferative activity against human PC3 cells after 48 hrs by SRB assay. As to conditions: PC-3, 48 h. It is filed as functional, cell-based.
Test [5] concerns the target T1, Histone deacetylase (Homo sapiens). In words: Inhibition of HDAC in human SW620 cells assessed as acetylated histone-H4 level at 1 uM after 24 hrs by Western blotting analysis. It is filed as cell-based. As to conditions: SW-620.
In another test the test system is MCF7. In words: Antiproliferative activity against human MCF7 cells after 48 hrs by SRB assay. As to conditions: MCF7, 48 h. It is filed as functional, cell-based.
Test [6] concerns SW-620. In words: Ratio of SAHA IC50 to compound IC50 for human SW620 cells. In kind it is functional.
Test [7] concerns ASPC1. The test can be described thus: Ratio of SAHA IC50 to compound IC50 for human AsPC1 cells. In kind it is functional.

Usually IC50 stands for the point on the concentration scale where inhibition reaches its midpoint. Take `O=C(CCCCCCN1C(=O)/C(=N\O)c2ccccc21)NO`: the outcome in the test with SW-620 [1] was Active. Moreover, the inhibition result in test [2] and in test [5] was “Active” each time. Also, the IC50 in the test on ASPC1 [3] was 1100 nM; in the test with NCI-H460 it was 890 nM; in the test with SW-620 [4], 640 nM; with PC-3 it was 980 nM; in the test with MCF7, 790 nM.
For the molecule `O=C(CCCCCCN1C(=O)/C(=N\O)c2cccc(Cl)c21)NO`, the inhibition result in [2] and in [5] was “Active” throughout. Moreover, the IC50 with ASPC1 [3] came out at 1820 nM; in the test with NCI-H460 it was 1350 nM; in the test with SW-620 [4], 1050 nM; with PC-3, 1570 nM; with MCF7, 1740 nM.
With `CO/N=C1/C(=O)N(CCCCCCC(=O)NO)c2ccc(C)cc21`, the result with SW-620 [1] was Active. The inhibition result in test [2] and in [5] was “inactive” in each case. The IC50 in the test with ASPC1 [3] was found to be 5480 nM; with NCI-H460, 1190 nM; with SW-620 [4] it was 1070 nM; in the test with PC-3, 350 nM; with MCF7, 16700 nM.
In the case of `CO/N=C1/C(=O)N(CCCCCCC(=O)NO)c2ccc(F)cc21`, in the test on SW-620 [1], the outcome was Active. The inhibition result in test [2] and in test [5] was “Active” throughout. Further, the IC50 in the test with ASPC1 [3] was 970 nM; in the test with NCI-H460, 970 nM; in the test with SW-620 [4] it was 1110 nM; in the test on PC-3, 1150 nM; with MCF7, 2420 nM.
As to `O=C(CCCCCCN1C(=O)/C(=N\O)c2cc(F)ccc21)NO`, the result in the test with SW-620 [1] was Active. For the same molecule, the inhibition entry in [2] and in test [5] was “Active” throughout. The IC50 was found to be 1720 nM in the test with ASPC1 [3]; 1500 nM with NCI-H460; 110 nM in the test on SW-620 [4]; 2730 nM in the test with PC-3; 1550 nM in the test with MCF7. The “Ratio IC50” value with SW-620 [6] turned out to be 30.
As for `CO/N=C1/C(=O)N(CCCCCCC(=O)NO)c2ccccc21`, in the test with SW-620 [1], the result was Active. Also, the inhibition result in test [2] and in [5] was “Active” throughout. Moreover, the IC50 with ASPC1 [3] came out at 1220 nM; in the test with NCI-H460, 750 nM; in the test with SW-620 [4], 730 nM; in the test on PC-3, 1670 nM; in the test with MCF7, 1710 nM.
Turning to `O=C(CCCCCCN1C(=O)/C(=N\O)c2cc(Br)ccc21)NO`, the outcome in the test on SW-620 [1] was Active. Besides, the inhibition result in test [2] and in test [5] was “Active” throughout. For the same molecule, the IC50 with ASPC1 [3] was 80 nM; in the test with NCI-H460 it was 970 nM; in the test on SW-620 [4] it was 290 nM; in the test on PC-3 it was 2210 nM; with MCF7, 1770 nM. Besides, the “Ratio IC50” value in the test on ASPC1 [7] is listed as 45.
`Cc1ccc2c(c1)/C(=N/O)C(=O)N2CCCCCCC(=O)NO`: the outcome in the test with SW-620 [1] was Active. The inhibition result in [2] and in [5] was “Active” throughout. The IC50 in the test on ASPC1 [3] was found to be 2440 nM; with NCI-H460 it was 2090 nM; in the test on SW-620 [4] it was 990 nM; in the test on PC-3 it was 620 nM; in the test with MCF7, 1190 nM.
`CO/N=C1/C(=O)N(CCCCCCC(=O)NO)c2ccc(Br)cc21`: the outcome in the test on SW-620 [1] was Active. Further, the inhibition entry in [2] and in test [5] was “Active” in each case. For the same molecule, the IC50 was 1680 nM in the test on ASPC1 [3]; 2900 nM in the test with NCI-H460; 2320 nM in the test on SW-620 [4]; 8910 nM in the test with PC-3; 7790 nM with MCF7.
Regarding `O=C(CCCCCCN1C(=O)/C(=N\O)c2cc(Cl)ccc21)NO`, the outcome in the test with SW-620 [1] was Active. The inhibition result in [2] and in [5] was “Active” each time. The IC50 turned out to be 1860 nM in the test with ASPC1 [3]; 850 nM in the test with NCI-H460; 650 nM in the test on SW-620 [4]; 850 nM in the test with PC-3; 680 nM in the test on MCF7.
As for `O=C(CCCCCCN1C(=O)/C(=N\O)c2cc([N+](=O)[O-])ccc21)NO`, the result in the test on SW-620 [1] was Active. Moreover, the inhibition result in test [2] and in [5] was “inactive” throughout. The IC50 came to 4680 nM in the test with ASPC1 [3]; 7710 nM with NCI-H460; 3390 nM in the test with SW-620 [4]; 19700 nM with PC-3; 1340 nM in the test with MCF7.
`CO/N=C1/C(=O)N(CCCCCCC(=O)NO)c2ccc(Cl)cc21`: the result with SW-620 [1] was Active. Also, the inhibition result in test [2] and in test [5] was “Active” in each case. Besides, the IC50 in the test on ASPC1 [3] turned out to be 490 nM; in the test with NCI-H460, 760 nM; in the test with SW-620 [4] it was 490 nM; in the test on PC-3 it was 2330 nM; with MCF7 it was 1560 nM.
Consider `CO/N=C1/C(=O)N(CCCCCCC(=O)NO)c2c(Cl)cccc21`, for which the inhibition entry in test [2] and in test [5] was “Active” each time. Further, the IC50 stood at 630 nM with ASPC1 [3]; 350 nM in the test with NCI-H460; 260 nM in the test on SW-620 [4]; 290 nM in the test with PC-3; 340 nM with MCF7.
Regarding `CO/N=C1\C(=O)N(CCCCCCC(=O)NO)c2ccc([N+](=O)[O-])cc21`, the outcome with SW-620 [1] was Active. The inhibition entry in test [2] and in test [5] was “inactive” each time. Moreover, the IC50 worked out at 840 nM with ASPC1 [3]; 14300 nM in the test with NCI-H460; 1350 nM in the test on SW-620 [4]; 1690 nM in the test on PC-3; 940 nM in the test with MCF7.
